Experiment: solubilities of the dioxide in various solvents at room temperature
Format: physicochemical
Parameters: key: completely and transparently dissolved; x: partially not dissolved, with presence of crystals
Source text: The solubilities of 7-chloro-3-methyl-2H[benzo-l,2,4-thiadiazine]-l,l-dioxide in various solvents at room temperature are shown in Table l.
• *l: The dioxide is 7-chloro-3-methyl-2H-[benzo-l,2,4-thiadiazine]-l,l-dioxide • *2: Dipropylene glycol
In the Table, o: completely and transparently dissolved; x: partially not dissolved, with presence of crystals.

Substance: 7-chloro-3-methyl-2H-[benzo-l,2,4-thiadiazine]-l,l-dioxide
- solubility of Dioxide in solvent (solvent BA, Dioxide 0.2 % by weight): o
- solubility of Dioxide in solvent (solvent BA, Dioxide 1.0 % by weight): o
- solubility of Dioxide in solvent (solvent BA, Dioxide 2.0 % by weight): x
- solubility of Dioxide in solvent (solvent BA, Dioxide 3.0 % by weight): x
- solubility of Dioxide in solvent (solvent BA/IPA = 1/9, Dioxide 0.2 % by weight): o
- solubility of Dioxide in solvent (solvent BA/IPA = 1/9, Dioxide 1.0 % by weight): o
- solubility of Dioxide in solvent (solvent BA/IPA = 1/9, Dioxide 2.0 % by weight): x
- solubility of Dioxide in solvent (solvent BA/IPA = 1/9, Dioxide 3.0 % by weight): x
- solubility of Dioxide in solvent (solvent BA/IPA/aqueous alkali solution (pH = 10) = 1/3/6, Dioxide 0.2 % by weight): o
- solubility of Dioxide in solvent (solvent BA/IPA/aqueous alkali solution (pH = 10) = 1/3/6, Dioxide 1.0 % by weight): o
- solubility of Dioxide in solvent (solvent BA/IPA/aqueous alkali solution (pH = 10) = 1/3/6, Dioxide 2.0 % by weight): o
- solubility of Dioxide in solvent (solvent BA/IPA/aqueous alkali solution (pH = 10) = 1/3/6, Dioxide 3.0 % by weight): o
- solubility of Dioxide in solvent (solvent DMSO, Dioxide 0.2 % by weight): o
- solubility of Dioxide in solvent (solvent DMSO, Dioxide 1.0 % by weight): o
- solubility of Dioxide in solvent (solvent DMSO, Dioxide 2.0 % by weight): o
- solubility of Dioxide in solvent (solvent DMSO, Dioxide 3.0 % by weight): o
- solubility of Dioxide in solvent (solvent DPG (Dipropylene glycol), Dioxide 0.2 % by weight): x
- solubility of Dioxide in solvent (solvent DPG (Dipropylene glycol), Dioxide 1.0 % by weight): x
- solubility of Dioxide in solvent (solvent DPG (Dipropylene glycol), Dioxide 2.0 % by weight): x
- solubility of Dioxide in solvent (solvent DPG (Dipropylene glycol), Dioxide 3.0 % by weight): x
- solubility of Dioxide in solvent (solvent Ethyl alcohol, Dioxide 0.2 % by weight): x
- solubility of Dioxide in solvent (solvent Ethyl alcohol, Dioxide 1.0 % by weight): x
- solubility of Dioxide in solvent (solvent Ethyl alcohol, Dioxide 2.0 % by weight): x
- solubility of Dioxide in solvent (solvent Ethyl alcohol, Dioxide 3.0 % by weight): x
- solubility of Dioxide in solvent (solvent IPA, Dioxide 0.2 % by weight): o
- solubility of Dioxide in solvent (solvent IPA, Dioxide 1.0 % by weight): x
- solubility of Dioxide in solvent (solvent IPA, Dioxide 2.0 % by weight): x
- solubility of Dioxide in solvent (solvent IPA, Dioxide 3.0 % by weight): x
- solubility of Dioxide in solvent (solvent IPA/DPG = 1/1, Dioxide 0.2 % by weight): o
- solubility of Dioxide in solvent (solvent IPA/DPG = 1/1, Dioxide 1.0 % by weight): x
- solubility of Dioxide in solvent (solvent IPA/DPG = 1/1, Dioxide 2.0 % by weight): x
- solubility of Dioxide in solvent (solvent IPA/DPG = 1/1, Dioxide 3.0 % by weight): x
- solubility of Dioxide in solvent (solvent IPA/DPG/aqueous alkali solution (pH = 10) = 2/1/1, Dioxide 0.2 % by weight): o
- solubility of Dioxide in solvent (solvent IPA/DPG/aqueous alkali solution (pH = 10) = 2/1/1, Dioxide 1.0 % by weight): o
- solubility of Dioxide in solvent (solvent IPA/DPG/aqueous alkali solution (pH = 10) = 2/1/1, Dioxide 2.0 % by weight): o
- solubility of Dioxide in solvent (solvent IPA/DPG/aqueous alkali solution (pH = 10) = 2/1/1, Dioxide 3.0 % by weight): o

From EP0222670A1, “Dissolved composition of (benzo-1,2,4-thiadiazine)-1,1-dioxide” (SHISEIDO COMPANY LIMITED, priority 1985, dated 1987)
